Tested on: patients with dry eye disease
Experiment: Phase 2b: overall efficacy on signs and symptoms
Assay type: in vivo, human
Method: In a Phase 2b clinical trial, the efficacy of Reproxalap Ophthalmic Solutions (0.25% and 0.1%) were evaluated in patients with dry eye disease (see the details in Example 1). […] The efficacy profile of Reproxalap Ophthalmic Solutions was evident as early as two weeks following treatment initiation. […] Efficacy Analysis • Evaluated baseline to weeks 2, 4, 8 and 12 change scores with reproxalap on DED sign and symptom endpoints (both pre-CAE and CAE endpoints). Each endpoint was analyzed at a two-sided alpha level of 0.05, and the overall type I error was not controlled for in this investigative study. • Evaluated effect size of baseline to weeks 2, 4, 8 and 12 change scores of reproxalap vs vehicle on DED sign and symptom endpoints (both pre-CAE and CAE endpoints) to confirm the endpoint selection for primary outcome parameters and sample size for Phase 3 studies with reproxalap. • Sub-group analyses on effect size of baseline to weeks 2, 4, 8 and 12 change scores of reproxalap vs vehicle on DED sign and symptom endpoints (both pre-CAE and CAE endpoints) [Subgroups were prospectively detailed in the Statistical Analysis Plan (SAP)].

CC(C)(O)c1nc2ccc(Cl)cc2cc1N [Reproxalap, reproxalap]
Dose response between 0.1% and 0.25% dose strengths: dose response

Reference: patent US20220133629A1, “FORMULATIONS FOR TREATMENT OF DRY EYE DISEASE” (Aldeyra Therapeutics, Inc., priority 2018, published 2022)
